In US20110033393A1, “Hydrazone Compounds and Their Use” (priority 2009, published 2011):

Target: T1, human TRPM5 ion channel (Homo sapiens, UniProt Q9NZQ8)
T1 sequence (Q9NZQ8 1-1165): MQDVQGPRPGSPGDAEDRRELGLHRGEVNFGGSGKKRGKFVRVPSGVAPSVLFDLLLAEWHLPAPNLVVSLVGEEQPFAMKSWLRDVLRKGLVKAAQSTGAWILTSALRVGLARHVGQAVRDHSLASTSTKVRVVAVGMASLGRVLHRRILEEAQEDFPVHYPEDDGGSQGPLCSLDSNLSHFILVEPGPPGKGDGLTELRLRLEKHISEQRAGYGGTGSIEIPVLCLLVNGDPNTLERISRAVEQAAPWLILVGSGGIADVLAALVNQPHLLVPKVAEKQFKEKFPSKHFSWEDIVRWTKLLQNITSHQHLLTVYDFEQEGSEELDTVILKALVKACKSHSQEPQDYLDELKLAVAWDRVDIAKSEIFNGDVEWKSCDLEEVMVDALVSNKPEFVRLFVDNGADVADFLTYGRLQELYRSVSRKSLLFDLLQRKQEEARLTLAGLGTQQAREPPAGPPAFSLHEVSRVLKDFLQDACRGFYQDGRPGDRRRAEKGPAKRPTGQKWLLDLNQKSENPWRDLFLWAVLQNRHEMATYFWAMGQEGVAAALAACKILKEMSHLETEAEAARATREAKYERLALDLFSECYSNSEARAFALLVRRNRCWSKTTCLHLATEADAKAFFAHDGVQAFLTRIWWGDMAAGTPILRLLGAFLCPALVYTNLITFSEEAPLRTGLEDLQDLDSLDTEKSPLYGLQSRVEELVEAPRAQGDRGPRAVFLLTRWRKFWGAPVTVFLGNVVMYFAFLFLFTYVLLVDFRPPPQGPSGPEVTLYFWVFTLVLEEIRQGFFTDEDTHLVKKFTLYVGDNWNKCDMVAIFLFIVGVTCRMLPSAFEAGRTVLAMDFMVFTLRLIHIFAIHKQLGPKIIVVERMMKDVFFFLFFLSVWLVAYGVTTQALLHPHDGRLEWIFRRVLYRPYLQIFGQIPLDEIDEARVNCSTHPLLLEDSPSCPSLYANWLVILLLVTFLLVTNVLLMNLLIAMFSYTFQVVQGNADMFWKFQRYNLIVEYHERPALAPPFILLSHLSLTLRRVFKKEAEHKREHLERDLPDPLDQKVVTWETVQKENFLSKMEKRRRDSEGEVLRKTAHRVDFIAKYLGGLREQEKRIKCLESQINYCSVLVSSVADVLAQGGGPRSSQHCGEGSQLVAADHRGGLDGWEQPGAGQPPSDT
Assay: FLIPR-based assay for membrane potential and calcium mobilization (TRPM5 inhibiting activity)
Format: cell-based
Details: live cells, 30° C., read-out: hTrpM5 IC50
Method: The activity of compounds of the present invention on human TRPM5 ion channel was measured using the FLIPR-based (fluorescent imaging plate reader) assay for membrane potential and calcium mobilization described in U.S. Patent Application Publication No. 2008/0249189 A1 in live cells, wherein the assay is performed at 30° C. Determinations of affinity and efficacy were derived from measurements of TRPM5 activity over a range of compound concentrations. The concentration range was achieved by 10 serial dilutions (either 2-fold or 3-fold decrements) from a maximum concentration of no greater that 100 μM. Curver fitting was performed on the resulting data to yield concentration-effect functions, from which the half-maximal inhibitory concentration (IC50) was derived for all the tested compounds. The IC50 values were considered to be accurate reflections of affinity between the compounds and TRPM5.
Representative compounds of the present invention have been tested in the FLIPR assay for TRPM5 inhibiting activity, which is described in detail above.

Row | IC50 [nM] | SMILES
1 | 810 | COc1ccc(/C=N/NC(=O)CCc2cnc3ccccc3c2)cc1OC [Example 39, N′-(3,4-dimethoxybenzylidene)-3-(quinolin-3-yl)propanehydrazide]
2 | 410 | COc1cccc([C@@H]2C[C@H]2C(=O)N/N=C/c2cc(C)c3ncccc3c2)n1 (relative stereo) [Example 42, trans-2-(6-Methoxypyridin-2-yl)-N′-((8-methylquinolin-6-yl)methylene)cyclopropanecarbohydrazide]
3 | 9 | COc1ccc(/C=N/NC(=O)CCc2cn(C)c3c(C)cccc23)cc1OC [Example 48, N′-(3,4-Dimethoxybenzylidene)-3-(1,7-dimethyl-1H-indol-3-yl)propanehydrazide]
4 | 46 | COc1cc(/C=N/NC(=O)CCn2cc(C)c3c(C)cccc32)ccc1OCc1ccncc1 [Example 18, 3-(3,4-Dimethyl-1H-indol-1-yl)-N′-(3-methoxy-4-(pyridin-4-ylmethoxy)benzylidene)propanehydrazide]
5 | 38 | COc1cc(/C=N/NC(=O)CCn2cc(C)c3c(C)cccc32)cc(Cl)c1OC [Example 15, N′-(3-Chloro-4,5-dimethoxybenzylidene)-3-(3,4-dimethyl-1H-indol-1-yl)propanehydrazide]
6 | 2200 | Cc1cn(CCC(=O)N/N=C/c2ccc3nccnc3c2)c2ccccc12 [Example 32, 3-(3-Methyl-1H-indol-1-yl)-N′-(quinoxalin-6-ylmethylene)propanehydrazide]
7 | 24 | Cc1cccc2c1c(C)cn2CCC(=O)N/N=C/c1ccc2c(c1)OCCCO2 [Example 45]
8 | 1.4 | COc1cc(/C=N/NC(=O)CCn2cc(C)c3c(C)cccc32)cc2cccnc12 [Example 27, 3-(3,4-Dimethyl-1H-indol-1-yl)-N′-((8-methoxyquinolin-6-yl)methylene)propanehydrazide]
9 | 30 | Cc1cn(CCC(=O)N/N=C/c2cc(C)c3ncccc3c2)c2ccccc12 [Example 3, 3-(3-Methyl-1H-indol-1-yl)-N′-((8-methylquinolin-6-yl)methylene)propanehydrazide]
10 | 2000 | COc1cccc(CCC(=O)N/N=C/c2cc(C)c3ncccc3c2)n1 [Example 26, 3-(6-Methoxypyridin-2-yl)-N′-((8-methylquinolin-6-yl)methylene)propanehydrazide]
11 | 340 | Cc1cn(CCC(=O)N/N=C/c2ccc3ncccc3c2)c2ccccc12 [Example 59, 3-(3-methyl-1H-indol-1-yl)-N′-(quinolin-6-ylmethylene)-propanehydrazide]
12 | 66 | COc1cc(/C=N/NC(=O)CCn2cc(C)c3c(C)cccc32)ccc1OCc1ccccn1 [Example 13, 3-(3,4-Dimethyl-1H-indol-1-yl)-N′-(3-methoxy-4-(pyridin-2-ylmethoxy)benzylidene)propanehydrazide]
13 | 800 | Cc1cc(/C=N/NC(=O)[C@@H]2C[C@H]2c2cccc(Cl)c2)cc2cccnc12 (relative stereo) [Example 29, trans-2-(3-Chlorophenyl)-N′-((8-methylquinolin-6-yl)methylene)cyclopropanecarbohydrazide]
14 | 17 | COc1ccc(/C=N/NC(=O)CCn2cc(C)c3ccccc32)cc1OC [Example 56, N′-(3,4-dimethoxybenzylidene)-3-(3-methyl-1H-indol-1-yl)propanehydrazide]
15 | > 30000 | Cc1cn(CCC(=O)N/N=C/c2ccc3cccnc3c2)c2ccccc12 [Example 68, 3-(3-methyl-1H-indol-1-yl)-N′-(quinolin-7-ylmethylene)-propanehydrazide]
16 | 240 | Cc1cc(C=NNC(=O)C2CC2c2ccccc2)cc2cccnc12 (single isomer, unassigned) [11 (E2), trans-N′-((8-Methylquinolin-6-yl)methylene)-2-phenylcyclopropanecarbohydrazide, E2 enantiomer]
17 | 37 | COc1ccc(/C=N/NC(=O)[C@@H]2C[C@H]2c2cccc(C(F)(F)F)c2)cc1OC (relative stereo) [Example 6, trans-N′-(3,4-Dimethoxybenzylidene)-2-(3-(trifluoromethyl)phenyl)cyclopropanecarbohydrazide]
18 | 170 | COc1ccc(/C=N/NC(=O)CCn2ccc3ccccc32)cc1OC [Example 54, N′-(3,4-dimethoxybenzylidene)-3-(1H-indol-1-yl)propanehydrazide]
19 | 90 | COc1cc(/C=N/NC(=O)[C@@H]2C[C@H]2c2ccccc2)cc2cccnc12 (relative stereo) [Example 22, trans-N′-((8-Methoxyquinolin-6-yl)methylene)-2-phenylcyclopropanecarbohydrazide]
20 | 80 | COc1cc(/C=N/NC(=O)CCn2cc(C)c3c(C)cccc32)ccc1OCc1ccccc1 [Example 12, N′-(4-(Benzyloxy)-3-methoxybenzylidene)-3-(3,4-dimethyl-1H-indol-1-yl)propanehydrazide]
21 | 260 | COc1ccc(/C=N/NC(=O)CCn2cc(C)c3c(CO)cccc32)cc1OC [Example 50, N′-(3,4-Dimethoxybenzylidene)-3-(4-(hydroxymethyl)-3-methyl-1H-indol-1-yl)propanehydrazide]
22 | 53 | COc1cc(/C=N/NC(=O)CCn2cc(C)c3c(C)cccc32)ccc1OCc1cccnc1 [Example 16, 3-(3,4-Dimethyl-1H-indol-1-yl)-N′-(3-methoxy-4-(pyridin-3-ylmethoxy)benzylidene)propanehydrazide]
23 | 550 | O=C(N/N=C/c1cc(F)c2ncccc2c1)C1CC1c1ccccc1 (stereo not drawn) [Example 44, trans-N′-((8-Fluoroquinolin-6-yl)methylene)-2-phenylcyclopropanecarbohydrazide]
24 | 370 | Cc1ccnc2ccc(/C=N/NC(=O)CCn3cc(C)c4ccccc43)cc12 [Example 62, 3-(3-methyl-1H-indol-1-yl)-N′-((4-methylquinolin-6-yl)methylene)-propanehydrazide]
25 | 51 | COc1ccc(/C=N/NC(=O)NCCc2ccc(Cl)cc2)cc1OC [Example 5, N-(4-Chlorophenethyl)-2-(3,4-dimethoxybenzylidene)hydrazinecarboxamide]
26 | 1.3 | COc1ccc(/C=N/NC(=O)CCn2cc(Cl)c3c(C)cccc32)cc1OC [Example 49, 3-(3-Chloro-4-methyl-1H-indol-1-yl)-N′-(3,4-dimethoxybenzylidene)propanehydrazide]
27 | > 30000 | COc1cnc(/C=N/NC(=O)C(C)Sc2cccc(Cl)c2)cc1OC (stereo not drawn) [Example 53, 2-(3-Chlorophenylthio)-N′-((4,5-dimethoxypyridin-2-yl)methylene)propanehydrazide]
28 | 160 | Cc1cc(/C=N/NC(=O)CCc2cn(C)c3ccccc23)cc2cccnc12 [Example 23, 3-(1-Methyl-1H-indol-3-yl)-N′-((8-methylquinolin-6-yl)methylene)propanehydrazide]
29 | 6 | COc1ccc(/C=N/NC(=O)CCn2cc(C)c3c(OC)cccc32)cc1OC [Example 46, N′-(3,4-Dimethoxybenzylidene)-3-(4-methoxy-3-methyl-1H-indol-1-yl)propanehydrazide]
30 | 180 | COc1cc(/C=N/NC(=O)CCn2cc(C)c3c(C)cccc32)ccc1OCc1cccnn1 [Example 19, 3-(3,4-Dimethyl-1H-indol-1-yl)-N′-(3-methoxy-4-(pyridazin-3-ylmethoxy)benzylidene)propanehydrazide]
